Assay results: PubChem BioAssay (NCI)
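How tested: cells in 96-well plates exposed to compound for 48 hours at five concentrations. The concentration for 50% growth inhibition is given as GI50. TGI is the concentration that stops growth completely.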

Assays:
Assay in all cases: NCI-60 cell line screen, 48 h
CCRF-CEM leukemia = system: CCRF-CEM leukemia
RXF 393 renal = system: RXF 393 renal
SNB-19 CNS = system: SNB-19 CNS
NCI-H522 lung = system: NCI-H522 lung
SF-268 CNS = system: SF-268 CNS
MOLT-4 leukemia = system: MOLT-4 leukemia
UACC-62 melanoma = system: UACC-62 melanoma
K-562 leukemia = system: K-562 leukemia
PC-3 prostate = system: PC-3 prostate
MDA-MB-231 breast = system: MDA-MB-231 breast

| Structure (SMILES) | TGI (CCRF-CEM leukemia) | TGI (RXF 393 renal) | TGI (SNB-19 CNS) | TGI (NCI-H522 lung) | TGI (SF-268 CNS) | TGI (MOLT-4 leukemia) | TGI (UACC-62 melanoma) | TGI (K-562 leukemia) | GI50 (RXF 393 renal) | GI50 (SNB-19 CNS) | GI50 (PC-3 prostate) | TGI (PC-3 prostate) | GI50 (MDA-MB-231 breast) | TGI (MDA-MB-231 breast) | GI50 (SF-268 CNS) | GI50 (MOLT-4 leukemia) | GI50 (UACC-62 melanoma) | GI50 (NCI-H522 lung) | GI50 (K-562 leukemia) |
| --- | --- | --- | --- | --- | --- | --- | --- | --- | --- | --- | --- | --- | --- | --- | --- | --- | --- | --- | --- |
| COC(=O)C1=C(c2ccc(Cl)cc2)C(O)N=C(NN)N1 (stereo not given) | > 100 µM | > 100 µM | > 100 µM | > 100 µM | > 100 µM | > 100 µM | > 100 µM | > 100 µM | – | – | – | – | – | – | – | – | – | – | – |
| CC1=C(C(=O)Nc2ccccc2C)C(c2ccccc2C)C(C(=O)Nc2ccccc2C)=C(C)N1 | – | 26.2 µM | 56.9 µM | 29.9 µM | 69.5 µM | > 10 µM | – | 69.3 µM | – | – | – | – | – | – | – | – | – | – | – |
| CC(=O)O/N=C/c1cc2c(cc1Br)OCO2 | > 349 µM | > 349 µM | – | > 349 µM | > 349 µM | > 349 µM | > 349 µM | > 349 µM | – | – | – | – | – | – | – | – | – | – | – |
| COc1cc2c(cc1OCCCCCn1c3ccccc3c3ccccc31)N=C[C@@H]1CCCN1C2=O | – | 16.4 µM | 4.04 µM | – | 3.74 µM | 6.11 µM | 3.8 µM | – | 4.34 µM | 2.05 µM | 2.36 µM | 7.73 µM | 1.73 µM | 3.69 µM | 1.91 µM | 2.15 µM | 1.86 µM | – | – |
| O=C1NN=CN2C(=O)CCC12 (stereo not given) | > 100 µM | > 100 µM | > 100 µM | – | > 100 µM | > 100 µM | > 100 µM | > 100 µM | – | – | – | – | – | – | – | – | – | – | – |
| NC(=O)N/N=C(\CCC(=O)N(Cc1ccccc1)Cc1ccccc1)CC(=O)c1ccc(F)cc1 | > 100 µM | > 100 µM | > 100 µM | – | > 100 µM | > 100 µM | > 100 µM | > 100 µM | – | – | – | – | – | – | – | – | – | – | – |
| N#CC(C(=O)CCC(=O)Nc1ccc(Cl)c(Cl)c1)c1ccc(Cl)cc1 (stereo not given) | – | > 100 µM | > 100 µM | – | > 100 µM | > 100 µM | > 100 µM | 90.5 µM | – | – | – | – | – | – | – | – | – | – | – |
| CCCCCCCCCCCCCCCCCc1nnc(N)o1 | – | – | > 100 µM | > 100 µM | > 100 µM | > 100 µM | > 100 µM | > 100 µM | – | – | – | – | – | – | – | – | – | – | – |
| COc1ccc2c(c1OC)C(=O)O[C@@H]2[C@H]1c2c(c(Br)c3c(c2OC)OCO3)CCN1C | – | > 100 µM | > 100 µM | > 100 µM | > 100 µM | > 100 µM | > 100 µM | > 100 µM | 20.3 µM | 75.9 µM | 9.11 µM | > 100 µM | – | – | 18 µM | 4.09 µM | 4.31 µM | 6.78 µM | 2.73 µM |
| CC1CC(=O)c2c(ccc3c2C(=O)c2cccc(O)c2C3=O)C1 (stereo not given) | 7.97 µM | – | 26.1 µM | 12.7 µM | 31.1 µM | 9.57 µM | 22.4 µM | 10.6 µM | – | – | – | – | – | – | – | – | – | – | – |
| O=C(CC(=O)c1ccccc1)C(=O)NC12CC3CC(CC(C3)C1)C2 | > 80.4 µM | > 47.3 µM | > 100 µM | > 100 µM | > 100 µM | > 100 µM | > 100 µM | > 100 µM | – | – | – | – | – | – | – | – | – | – | – |
| NS(=O)(=O)c1ccc(NC(=O)c2cccc3c(Nc4ccc(S(N)(=O)=O)cc4)c4ccccc4nc23)cc1 | 87.6 µM | > 100 µM | > 100 µM | 49.9 µM | 65.3 µM | 39.8 µM | > 100 µM | 82.1 µM | – | – | – | – | – | – | – | – | – | – | – |
